US5840867A, “Aptamer analogs specific for biomolecules” (Gilead Sciences, Inc., priority 1994, dated 1998)

How the values were obtained:
[1] = tested on: thrombin; test: Clotting time for thrombin-catalyzed conversion of fibrinogen to fibrin; type: biochemical; conditions: 7-mer at 20 μM; thrombin 10 nM; thrombin alone 24 sec
Protocol: Clotting time for the thrombin-catalyzed conversion of fibrinogen (2.0 mg/ml in selection buffer) to fibrin at 37° C. was measured using a precision coagulation timer apparatus (Becton-Dickinson, Cat. Nos. 64015, 64019, 64020). Thrombin (10 nM) incubated with fibrinogen alone clotted in 40 sec, thrombin incubated with fibrinogen and P1 nuclease (Boehringer-Mannheim, Indianapolis, Ind.) clotted in 39 sec, thrombin incubated with fibrinogen and aptamer clone #5 (200 nM) clotted in 115 sec, and thrombin incubated with fibrinogen, clone #5 (200 nM) and P1 nuclease clotted in 40 sec. All incubations were carried out at 37° C. using reagents prewarmed to 37° C. Aptamer DNA or, when present, P1 nuclease, was added to the fibrinogen solution prior to addition of thrombin.
Inhibition of thrombin activity was studied using a consensus-related sequence 7-mer, 5' GGTTGGG 3' (SEQ ID NO:15), or a control 7-mer with the same base composition but different sequence (5' GGGGGTT 3' ) (SEQ ID NO:16). Clotting times were measured using the timer apparatus as above. The thrombin clotting time in this experiment was 24 sec using thrombin alone (10 nM), 26 sec with thrombin and the control sequence at 20 μM and 38 sec with thrombin plus the consensus sequence at 20 μM, indicating specificity for thrombin inhibition at the level of the 7-mer.

[2] = tested on: thrombin; test: Extent of thrombin inhibition with varying DNA concentration; type: biochemical
Excerpt: Independent verification of the Ki for the nonmodified 15-mer was made by determining the extent of thrombin inhibition with varying DNA concentration.

[3] = tested on: thrombin; test: Steady-state inhibition kinetics by clotting time assay (Ki); type: biochemical; conditions: constant thrombin, varying fibrinogen concentration
Protocol: The inhibition constants (Ki s) and mode of inhibition of the aptamer analogs were determined through steady-state inhibition kinetics using a clotting time assay with constant thrombin concentration and varying the fibrinogen concentration in the presence of aptamer, control DNA, or no DNA. […] The data is consistent with a non-competitive mode of inhibition.

[4] = tested on: rat blood coagulation; test: APTT test after injection in rats; type: in vivo; conditions: 5 minute time point
Protocol: (§1) Thus, the 15-mer in blood withdrawn from rats 5 minutes post-injection was able to inhibit exogenously added human thrombin. […] The half-life of the 15-mer in rats appears to be about 5 minutes or less.

[5] = Half-life in rats; type: in vivo, rat; conditions: injected through catheter
Protocol: (§2) A 15-mer single-stranded deoxynucleotide, 5' GGTTGGTGTGGTTGG 3' (SEQ ID NO:19), identified as a consensus sequence from 30 thrombin aptamer clones as described in Example 4 above was used. Young adult rats of mixed gender and strain were used. The animals were anesthetized and a diester of the 15-mer was injected through a catheter in 200 μl volumes (in 20 mM phosphate buffer, pH 7.4, 0.15M NaCl) at two concentrations, so that the final concentration of 15-mer in the blood was about 0.5 and 5.0 μM respectively, although the exact concentration depends on the volume of distribution which is unknown for this oligonucleotide. These values are 10 to 100 times greater than the human in vitro Kd value. No heparin was used for catheterization.
(§3) At 0, 5, 20 and 60 minutes, blood was withdrawn from the animals (approx. 500 μl aliquots) and transferred into tubes containing 0.1 volume citrate buffer and centrifuged. Rat plasma was removed and tested in a thrombin clotting-time assay. Six animals were used at each concentration,and three animals were injected with the control carrier solution containing no 15-mer.
as §1

[6] = tested on: human thrombin; test: Thrombin clotting-time assay on rat plasma after injection; type: in vivo; conditions: rats, injected through catheter
Protocol: as §2, §3

Row | Substance | Ki [3] [nM] | other results
1 | 5' GGGGGTT 3' (chemistry not given here) [reference compound] | – | Clotting time [1]: 26 s
2 | 5' GGTTGGG 3' (chemistry not given here) | – | Clotting time [1]: 38 s
3 | 5' GGTTGGTGTGGTTGG 3' | 20 | concentration giving 50% inhibition of thrombin activity [2]: approximately the same concentration as the derived Ki; APTT test [4]: inhibited rat blood coagulation; half-life [5]: ≤ 5 min; clotting time of rat plasma ([6]; about 0.5 and 5.0 μM in blood, 5 minute time point): prolonged clotting time; activity in clotting-time assay of rat plasma ([6]; 20 minutes): Little or no activity
4 | G*G*T*T*G*G*T*G*T*G*G*T*T*G*G | 280 | –
5 | GG(dU)TGGTGTGG(dU)TGG (DNA GGNTGGTGTGGNTGG) [15-mer thrombin aptamer analog with uracil (dU) in place of thymine] | 80 | –
6 | GGTTGG(dU)G(dU)GGTTGG (DNA GGTTGGNGNGGTTGG; dU in place of thymine) [15-mer thrombin aptamer analog with uracil (dU) in place of thymine] | 15 | –
7 | GGTTGGTGTGGTT*G*G | 40 | –
8 | GGTTGGTGTGGTTGG#G#T (DNA GGTTGGTGTGGTTGGGT; MEA linkages, chemistry not fully specified) [closely related 17-mer thrombin aptamer analog; # indicates a MEA linkage] | 35 | –
9 | GGTTGGTGTGGTU'GG (DNA GGTTGGTGTGGTNGG; 5-pentynyluracil, further chemistry not given here) [15-mer thrombin aptamer analog; U' indicates 5-pentynyluracil] | 20 | –
